Key:
Assay type in all cases: in vivo
Setaria viridis (SETVI) = assay: Herbicidal pre-emergence action, section C (Table C8); conditions: visual grading after ca. 3 weeks
Summary of the method: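 Greenhouse pre-emergence test on sandy loam: spray of formulated compound onto covering soil at 600 l water/ha, then percent damage judged by eye after ca. 3 weeks relative to untreated pots.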

Veronica persica (VERPE) = assay: Herbicidal post-emergence action, section B (Table B10); conditions: visual rating about 3 weeks after treatment vs untreated controls; for pest or weed control at 320 g/ha: Veronica persica, post-emergence, 504 h, read-out: post-emergence activity against VERPE in %
Summary of the method: (§1)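 Greenhouse post-emergence spray on one-leaf-stage plants (sown in sandy loam, 2 to 3 weeks old). WP/EC formulations in water + 0.5% additive, 600 liters per hectare. Read-out: visual % activity vs untreated, ~3 weeks after treatment; 100% = dead, 0% = as control.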

Poa annua (POAAN) = assay: Herbicidal post-emergence action, section B (Table B7); conditions: visual rating about 3 weeks after treatment vs untreated controls
Summary of the method: as §1

[1] = test system: Alopecurus myosuroides (ALOMY); assay: Herbicidal post-emergence action, section E (Table E2); conditions: application rate 320 g/ha; assessed visually after ca. 3 weeks
From the text: (§2) Seeds of mono- and dicotyledonous weed plants and crop plants were sown, in plastic or organic planting pots, in sandy loam, covered with soil and grown in a greenhouse under controlled growth conditions. 2 to 3 weeks after sowing, the test plants were sprayed in the single-leaf stage. The compounds according to the invention, formulated in form of wettable powders (WP) or as emulsifiable concentrates (EC), were sprayed onto the green plant parts as aqueous suspension or emulsion, with the addition of 0.5% of an additive, at an application rate of 600 l of water/ha (converted). The test plants were placed in the greenhouse for ca. 3 weeks under optimum growth conditions, and then the effect of the preparations was assessed visually in comparison with untreated controls (herbicidal effect in percent (%): 100% effect=plants have died off, 0% effect=as control plants).

[2] = test system: Digitaria sanguinalis (DIGSA); assay: Herbicidal post-emergence action, section B (Table B12); conditions: visual rating about 3 weeks after treatment vs untreated controls; for pest or weed control at 1280 g/ha: Digitaria sanguinalis, post-emergence, 504 h, read-out: post-emergence activity against DIGSA in %
Summary of the method: as §1

Lolium rigidum (LOLRI) = assay: Herbicidal pre-emergence action, section C (Table C5); conditions: visual grading after ca. 3 weeks; for pest or weed control at 320 g/ha: Lolium rigidum, pre-emergence, 504 h, read-out: pre-emergence activity against LOLRI in %
From the text: Seeds of mono- and dicotyledonous weed plants and crop plants were sown, in plastic or organic planting pots, in sandy loam and covered with soil. The compounds according to the invention, formulated in the form of wettable powders (WP) or as emulsifiable concentrates (EC), were applied to the surface of the covering soil as aqueous suspension or emulsion, with the addition of 0.5% of an additive, at an application rate of 600 l of water/ha (converted). Following treatment, the pots were placed in a greenhouse and kept under optimum growth conditions for the test plants. The visual grading of the damage to the test plants was carried out after ca. 3 weeks in comparison to untreated controls (herbicidal effect in percent (%): 100% effect=plants have died off, 0% effect=as control plants).

Oryza sativa (ORYZA) = assay: Post-emergence effects on crop plants, section F (Table F3); conditions: application rate 320 g/ha; for percent crop plant damage at 320 g/ha: Oryza sativa, 504 h, read-out: post-emergence activity against ORYZA in %
From the text: as §2, with “plants). Tables F1 to F4 below show the effects of selected compounds of the general formula (I) according to Table 1 on various crop plants and an application rate corresponding to 320 g/ha or below obtained by the experimental procedure mentioned above.” for “plants).”

Glycine max (GLXMA) = assay: Pre-emergence effects on crop plants, section D (Table D4); conditions: visual grading after ca. 3 weeks
Summary of the method: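 Pre-emergence soil-surface spray, 320 g/ha or below, 600 l water/ha + 0.5% additive; WP/EC formulations; sandy loam; greenhouse; visual % damage vs untreated at ~3 wk.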

[3] = Poa annua, post-emergence, 504 h, application rate 320 g/ha, read-out: post-emergence activity against POAAN in %
[4] = Setaria viridis, pre-emergence, 504 h, application rate 320 g/ha, read-out: pre-emergence activity against SETVI in %

## COCC1(C(=O)N2CSc3cc(C)c(-c4ccccc4F)nc32)CC(Cl)=NO1 (stereo not drawn) [Example I-128]
Setaria viridis (SETVI); application rate 80 g/ha
  pre-emergence activity against SETVI in %: 100%
Veronica persica (VERPE); application rate 320 g/ha
  post-emergence activity against VERPE in %: 90%
Poa annua (POAAN); application rate 1280 g/ha
  post-emergence activity against POAAN in %: 90%
[1]
  post-emergence activity against ALOMY in %: 90%
[2]; application rate 1280 g/ha
  post-emergence activity against DIGSA in %: 90%
Lolium rigidum (LOLRI); application rate 80 g/ha
  pre-emergence activity against LOLRI in %: 100%

## Clc1ccccc1-c1nc2c(cc1Br)SCN2 [Example I-041, 6-bromo-5-(2-chlorophenyl)-2,3-dihydro[1,3]thiazolo[4,5-b]pyridine]
Oryza sativa (ORYZA)
  percent crop plant damage at 320 g/ha: 0%
Setaria viridis (SETVI); Setaria viridis, pre-emergence, 504 h, application rate 80 g/ha, read-out: pre-emergence activity against SETVI in %
  pest or weed control at 80 g/ha: 90%
Veronica persica (VERPE); application rate 320 g/ha
  pest or weed control at 320 g/ha: 90%
Poa annua (POAAN); [3]
  pest or weed control at 320 g/ha: 90%

## COC(=O)CCC(=O)N1CSc2cc(C)c(-c3ccccc3F)nc21 [Example I-010]
Veronica persica (VERPE); application rate 320 g/ha
  post-emergence activity against VERPE in %: 90%
Poa annua (POAAN); application rate 1280 g/ha
  post-emergence activity against POAAN in %: 90%
[1]
  post-emergence activity against ALOMY in %: 80%
[2]; application rate 1280 g/ha
  post-emergence activity against DIGSA in %: 90%
Lolium rigidum (LOLRI); application rate 320 g/ha
  pre-emergence activity against LOLRI in %: 100%

## CC(C)C(=O)N1C[S+]([O-])c2cc(Br)c(-c3ccccc3)nc21 (stereo not drawn) [Example I-067]
Oryza sativa (ORYZA)
  percent crop plant damage at 320 g/ha: 0%
Glycine max (GLXMA); application rate 80 g/ha
  pre-emergence activity against GLXMA in % (crop plant damage): 20%
Setaria viridis (SETVI); [4]
  pest or weed control at 320 g/ha: 100%
Lolium rigidum (LOLRI); application rate 320 g/ha
  pest or weed control at 320 g/ha: 80%

## BN1CSc2cc(Br)c(-c3ccccc3C)nc21 [Example I-011]
Oryza sativa (ORYZA); crop plant damage
  post-emergence activity against ORYZA in %: 0%
Glycine max (GLXMA); application rate 320 g/ha
  pre-emergence activity against GLXMA in % (crop plant damage): 0%
Setaria viridis (SETVI); application rate 80 g/ha
  pre-emergence activity against SETVI in %: 100%
Veronica persica (VERPE); application rate 1280 g/ha
  post-emergence activity against VERPE in %: 90%
Poa annua (POAAN); application rate 1280 g/ha
  post-emergence activity against POAAN in %: 90%
Lolium rigidum (LOLRI); application rate 320 g/ha
  pre-emergence activity against LOLRI in %: 100%

## CC(=O)N1CSc2cc(Br)c(-c3ccccc3Cl)nc21 [Example I-055, 1-[6-bromo-5-(2-chlorophenyl)[1,3]thiazolo[4,5-b]pyridin-3(2H)-yl]ethanone]
Oryza sativa (ORYZA)
  percent crop plant damage at 320 g/ha: 0%
Glycine max (GLXMA); application rate 320 g/ha
  pre-emergence activity against GLXMA in % (crop plant damage): 20%
Setaria viridis (SETVI); [4]
  pest or weed control at 320 g/ha: 100%
[2]; application rate 1280 g/ha
  pest or weed control at 1280 g/ha: 90%
Lolium rigidum (LOLRI); application rate 320 g/ha
  pest or weed control at 320 g/ha: 90%

## CCc1ccccc1-c1nc2c(cc1C)[S+]([O-])CN2 (stereo not drawn) [Example I-047]
Oryza sativa (ORYZA)
  percent crop plant damage at 320 g/ha: 0%
Glycine max (GLXMA); application rate 320 g/ha
  pre-emergence activity against GLXMA in % (crop plant damage): 20%
Setaria viridis (SETVI); [4]
  pest or weed control at 320 g/ha: 100%
Veronica persica (VERPE); application rate 320 g/ha
  pest or weed control at 320 g/ha: 90%
Poa annua (POAAN); [3]
  pest or weed control at 320 g/ha: 90%
Lolium rigidum (LOLRI); application rate 320 g/ha
  pest or weed control at 320 g/ha: 100%

## Cc1cc2c(nc1-c1ccccc1)N(C(=O)C1(C)CC(Cl)=NO1)CS2 (stereo not drawn) [Example I-088]
Setaria viridis (SETVI); application rate 80 g/ha
  pre-emergence activity against SETVI in %: 100%
Veronica persica (VERPE); application rate 1280 g/ha
  post-emergence activity against VERPE in %: 90%
Poa annua (POAAN); application rate 320 g/ha
  post-emergence activity against POAAN in %: 90%
[2]; application rate 1280 g/ha
  post-emergence activity against DIGSA in %: 100%

## Cc1cc2c(nc1-c1cccc(C)c1F)NCS2 [Example I-113]
Glycine max (GLXMA); application rate 320 g/ha
  pre-emergence activity against GLXMA in % (crop plant damage): 10%
Setaria viridis (SETVI); application rate 320 g/ha
  pre-emergence activity against SETVI in %: 100%
Poa annua (POAAN); application rate 320 g/ha
  post-emergence activity against POAAN in %: 90%
[2]; application rate 320 g/ha
  post-emergence activity against DIGSA in %: 90%
Lolium rigidum (LOLRI); application rate 320 g/ha
  pre-emergence activity against LOLRI in %: 90%

## CC1(C(=O)N2CSc3cc(Br)c(-c4ccccc4Cl)nc32)CC(Cl)=NO1 (stereo not drawn) [Example I-141, [6-bromo-5-(2-chlorophenyl)[1,3]thiazolo[4,5-b]pyridin-3(2H)-yl](3-chloro-5-methyl-4,5-dihydro-1,2-oxazol-5-yl)methanone]
Setaria viridis (SETVI); [4]
  pest or weed control at 320 g/ha: 100%
Poa annua (POAAN); Poa annua, post-emergence, 504 h, application rate 1280 g/ha, read-out: post-emergence activity against POAAN in %
  pest or weed control at 1280 g/ha: 90%
[2]; application rate 1280 g/ha
  pest or weed control at 1280 g/ha: 90%

From patent US20240381872A1, “SUBSTITUTED 2,3-DIHYDRO[1,3]THIAZOLO[4,5-B]PYRIDINES, SALTS THEREOF AND THEIR USE AS HERBICIDALLY ACTIVE SUBSTANCES” (BAYER AKTIENGESELLSCHAFT, priority 2021, published 2024)
